Reference: ChEMBL document CHEMBL3352790, “Small molecule ghrelin receptor inverse agonists and antagonists” (J Med Chem, 2014)
Blank lines part the entries; values can stand above or below the compound they belong to.

What was measured:
[1] = target: T1, Growth hormone secretagogue receptor type 1 (Homo sapiens, UniProt Q92847); test: Binding affinity to human ghrelin receptor by receptor binding assay
[2] = Oral bioavailability in rat; format: ADME, organism-based; details: in vivo
Mus musculus [3] = organism: Mus musculus; test: Reduction in fat content in mouse; format: functional; set-up: scale not given: the % may be the effect or the level left
[4] = Unbound fraction rat brain; format: ADME, tissue-based
[5] = target: T1, Growth hormone secretagogue receptor type 1; test: Antagonist activity against human ghrelin receptor by FLIPR assay
Mus musculus [6] = test: Reduction in food intake in C57BL/6J mouse at 30 mg/kg, ip after 2 hrs; format: functional; details: route intraperitoneal

T1 sequence (Q92847 whole entry): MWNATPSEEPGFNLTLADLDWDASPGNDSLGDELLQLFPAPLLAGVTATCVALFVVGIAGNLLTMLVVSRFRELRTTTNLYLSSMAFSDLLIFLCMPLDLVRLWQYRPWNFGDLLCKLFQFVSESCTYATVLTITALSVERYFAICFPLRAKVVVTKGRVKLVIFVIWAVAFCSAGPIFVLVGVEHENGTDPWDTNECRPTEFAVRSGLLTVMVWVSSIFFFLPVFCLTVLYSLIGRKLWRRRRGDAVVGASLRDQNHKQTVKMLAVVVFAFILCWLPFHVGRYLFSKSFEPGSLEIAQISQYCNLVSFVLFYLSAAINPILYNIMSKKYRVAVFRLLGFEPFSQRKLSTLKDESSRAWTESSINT

Ki [1]: 15 nM
bioavailability [2]: 63%
SMILES: CCN(CC)CCCS(=O)(=O)N[C@H](CCc1ccccc1)c1nc(-c2ccc(OC)cc2)n[nH]1
Activity (Mus musculus [3]): 50%

Fu [4]: 0.2%
IC50 [5]: 6.31 nM
SMILES: CN1CCN([C@@H](C(=O)NNc2cc(C(F)(F)F)cc(C(F)(F)F)c2)c2ccccc2Cl)CC1

IC50 [5]: 3.98 nM
SMILES: O=C(NNc1cc(C(F)(F)F)cc(C(F)(F)F)c1)[C@@H](c1cccnc1)N1CCN2CCC[C@@H]2C1

SMILES: CC(NC(=O)N(Cc1ccccc1Cl)C1CCN(C)CC1)c1cccc(Cl)c1Cl (configuration not stated)
inhibition in vivo at 30 mg/kg (Mus musculus [6]): 70%
